The text below walks through data of publication PMC11647725, “Discovery of 4-(5-Membered)Heteroarylether-6-methylpicolinamide Negative Allosteric Modulators of Metabotropic Glutamate Receptor Subtype 5” (ACS Medicinal Chemistry Letters, 2024).

Series [1] in a line: Binding in brain homogenate from rat (equilibrium dialysis). It counts as in vitro ADME. Conditions: rat, brain homogenate, rat brain homogenates, read-out: Rat fu,brain. As for the experimental part:
transferred to the corresponding wells of new daughter plates (96-shallow-well, V bottom) containing water (Milli-Q, 60 µL/well), and the plates were sealed in preparation for LC-MS/MS analysis (see below). fu was calculated as (analyte to IS MS peak area ratio from Trans-buffer side) / (analyte to IS MS peak area ratio from Cis-plasma side). Mean values for each species were calculated from 3 replicates.
Binding in brain homogenate from rat.
Determination of fraction unbound (f u) in brain homogenate from rat was conducted using the same methodology and procedure than described for plasma protein binding assay with the following modifications: 1) a final compound concentration of 1 μM was used, 2) naïve rat brains were homogenized in DPBS (1:3 composition of brain: DPBS, w/w) using a Mini-Bead Beater™ machine in order to obtain […]
The diluted fraction unbound (f u2) in brain was calculated as (analyte to IS MS peak area ratio from Trans-buffer side) / (analyte to IS MS peak area ratio from Cis-brain homogenate side). Undiluted fraction unbound for the brain was calculated using the following equation: […]
(§1) Mean values for each species were calculated from 3 replicates. […]

Series [2] is described as follows: Binding in plasma from human (equilibrium dialysis). It counts as in vitro ADME. Conditions: human, plasma, read-out: Human fu,plasma. Here is the method:
(§2) Binding in plasma from rat and human.
(§3) Determination of compounds’ fraction unbound (f u) in plasma from rat and human was conducted in vitro via equilibrium dialysis using HTDialysis membrane plates. Dialysis membranes (four paired strips per HTD assay) were hydrated as described by the manufacturer and inserted into the HTD plate, which was assembled and prepared for sample addition by the dispensing of blank buffer (DPBS, 100 µL/well) into the ‘top half’ of each membrane-split well. Each compound was diluted into plasma from each species (5 µM final concentration), which was aliquoted in triplicate to the ‘bottom half’ of the prepared HTD plate wells. The HTD plate was sealed and incubated for 6 hours at 37 °C. Following incubation, each well (both top and bottom halves) were transferred (20 µL) to the corresponding wells of a 96-shallow-well (V-bottom) plate. The daughter plates were then matrix-matched (buffer side wells received equal volume of plasma, and plasma side wells received equal volume of buffer), and extraction solution (120 µL; acetonitrile containing 50 nM carbamazepine as IS) was added to all wells of both daughter plates to precipitate protein and extract test article. The plates were then sealed and centrifuged (3500 rcf) for 10 minutes at ambient temperature. Supernatant (60 µL) from each well of the daughter plates was then transferred to the corresponding wells of new daughter plates (96-shallow-well, V bottom) containing water (Milli-Q, 60 µL/well), and the plates were sealed in preparation for LC-MS/MS analysis (see below). fu was calculated as (analyte to IS MS peak area ratio from Trans-buffer side) / (analyte to IS MS peak area ratio from Cis-plasma side). Mean values for each species were calculated from 3 replicates. […]
as §1
(§4) After 5 minutes (pre-incubation), reactions were initiated by addition of nicotinamide adenine dinucleotide phosphate (NADPH, 1 mM final concentration). At selected time intervals (0, 3, 7, 15, 25, and 45 minutes) post-addition of NADPH, aliquots (50 µL) were taken and placed into a 96-shallow-well plate containing ice cold acetonitrile (150 µL) with carbamazepine (IS, 50 nM). The plates were then centrifuged (3000 rcf at 4 °C) for 10 minutes. The supernatants were transferred to a new 96-shallow-well daughter plate and diluted (1:1 v/v) with water (Milli-Q filtered). The plates were then sealed in preparation for LC-MS/MS analysis (see below).

Series [3] in a line: Binding in plasma from rat (equilibrium dialysis). To be noted: for fraction unbound at 6 h, 5 µM: rat, plasma, equilibrium dialysis, read-out: Rat fu,plasma. The class given is in vitro ADME. Here is the method: as §2, §3, §1, §4
The nature of series [4]: Intrinsic clearance in human liver microsomes. It counts as in vitro ADME. Conditions: for CLint scaled at 40 min, 1 µM: pH 7.4, human liver microsomes; for CLhep, human: predicted hepatic clearance based on microsomal CLint. As for the experimental part:
(§5) Mean values for each species were calculated from 3 replicates.
(§6) Intrinsic Clearance in Rat and Human Liver Microsomes
(§7) The in vitro intrinsic clearance (CL int) was investigated in commercially obtained hepatic microsomes from rat and human donors using the substrate depletion (i.e., loss-of-parent vs. time, or t 1/2 method) approach with analyte detection via liquid chromatography-tandem mass spectrometry (LC-MS/MS). For each species, mean %parent remaining values at each time point were calculated from replicates raw data (analyte:IS peak area ratios) and used to determine in vitro t 1/2 and CLint.
as §4, with “Experiments were carried out using a robot-assisted (TECAN model Evo 200). Compound was incubated (1 µM final concentration) in buffer (100 mM potassium phosphate pH 7.4 with 3 mM MgCl2) containing hepatic microsomes (0.5 mg/mL final concentration) from multiple species, discretely, at 37 °C under constant orbital shaking. After” for “After”
(§8) Raw LC-MS/MS peak area data generated from the assay samples were used to construct natural log-transformed %parent remaining vs. time plots (using t = 0 minute post-NADPH addition sample data as starting point set to 100%). In vitro compound half-life (t 1/2) values were obtained using the following […]
(§9) k is the slope from linear regression analysis of the natural log-transformed data (using means from Where all replicates at each time point). Resulting t 1/2 values were then used to calculate hepatic CLint values according to the following equation and with the use of species-specific scale-up factors for liver weight (grams) per total body weight (kg): […]
(§10) CLint = in vitro t1/2 x 0.5 mg microsomes x 1 gram liver x kg body wt aScale-up factors used are 45 (rat) and 20 (human).4
(§11) Predicted hepatic clearance (CLhep) was calculated using the following equation: […]
(§12) Qh represents hepatic blood flow (mL/min/kg): 21 for human, 70 for rat, and 90 for mouse.
(§13) Prepared samples were injected (10 µL each) onto an AB Sciex Triple Quad 4500 mass spectrometer system with an Agilent 1260 Infinity II pump and autosampler. Mass spectrometer conditions are described in Table S1. Quantitation of compounds was performed via AB Sciex Multiquant software using the raw analyte:IS peak area ratios. The typical detection range was 0.5 ng/mL to ≥ 5,000 ng/mL utilizing a quadratic equation regression with 1/x2 weighting.
(§14) Correction for dilution of all brain samples (in extraction buffer and subsequently in blank plasma, as previously described) was performed post-quantitation. The corrections for dilution in extraction buffer employed correction factors specific to each brain weight (not shown).

A short description of series [5]: IV plasma-brain level determination (PBL) in rat. It counts as in vivo. Conditions: male, Sprague-Dawley, brain and plasma, SD rat, 0.2 mg/kg IV; for Kp at 0.25 h: total brain-to-plasma partition ratio; for Kp uu at 0.25 h: unbound brain-to-plasma partition ratio.
Series [6] in a line: Intrinsic clearance in rat liver microsomes. The class given is in vitro ADME. Conditions: for CLint scaled at 40 min, 1 µM: pH 7.4, rat liver microsomes; for CLhep, rat: predicted hepatic clearance based on microsomal CLint. As for the experimental part: as §5, §6, §7
as §4, with “Experiments were carried out using a robot-assisted (TECAN model Evo 200). Compound was incubated (1 µM final concentration) in buffer (100 mM potassium phosphate pH 7.4 with 3 mM MgCl2) containing hepatic microsomes (0.5 mg/mL final concentration) from multiple species, discretely, at 37 °C under constant orbital shaking. After” for “After”
as §8, §9, §10, §11, §12, §13, §14

The next series concerns the target T1, human mGlu5 (Homo sapiens, UniProt P41594).
T1 construct: expressed in transfected cells
Nature of the series: Calcium mobilization assay in human mGlu5-HEK293A cells (NAM, EC80 glutamate). It counts as cell-based. To be noted: for % GluMin: efficacy of the NAM to reduce an EC80 response of glutamate; for % GluMin / pIC50 / IC50: human mGlu5-HEK293A cells; for pIC50 / IC50: EC80 fixed concentration of glutamate; for pIC50: n = 2 in triplicate; for IC50: read-out: hmGlu5 IC50.

T1 sequence (P41594 21-1212): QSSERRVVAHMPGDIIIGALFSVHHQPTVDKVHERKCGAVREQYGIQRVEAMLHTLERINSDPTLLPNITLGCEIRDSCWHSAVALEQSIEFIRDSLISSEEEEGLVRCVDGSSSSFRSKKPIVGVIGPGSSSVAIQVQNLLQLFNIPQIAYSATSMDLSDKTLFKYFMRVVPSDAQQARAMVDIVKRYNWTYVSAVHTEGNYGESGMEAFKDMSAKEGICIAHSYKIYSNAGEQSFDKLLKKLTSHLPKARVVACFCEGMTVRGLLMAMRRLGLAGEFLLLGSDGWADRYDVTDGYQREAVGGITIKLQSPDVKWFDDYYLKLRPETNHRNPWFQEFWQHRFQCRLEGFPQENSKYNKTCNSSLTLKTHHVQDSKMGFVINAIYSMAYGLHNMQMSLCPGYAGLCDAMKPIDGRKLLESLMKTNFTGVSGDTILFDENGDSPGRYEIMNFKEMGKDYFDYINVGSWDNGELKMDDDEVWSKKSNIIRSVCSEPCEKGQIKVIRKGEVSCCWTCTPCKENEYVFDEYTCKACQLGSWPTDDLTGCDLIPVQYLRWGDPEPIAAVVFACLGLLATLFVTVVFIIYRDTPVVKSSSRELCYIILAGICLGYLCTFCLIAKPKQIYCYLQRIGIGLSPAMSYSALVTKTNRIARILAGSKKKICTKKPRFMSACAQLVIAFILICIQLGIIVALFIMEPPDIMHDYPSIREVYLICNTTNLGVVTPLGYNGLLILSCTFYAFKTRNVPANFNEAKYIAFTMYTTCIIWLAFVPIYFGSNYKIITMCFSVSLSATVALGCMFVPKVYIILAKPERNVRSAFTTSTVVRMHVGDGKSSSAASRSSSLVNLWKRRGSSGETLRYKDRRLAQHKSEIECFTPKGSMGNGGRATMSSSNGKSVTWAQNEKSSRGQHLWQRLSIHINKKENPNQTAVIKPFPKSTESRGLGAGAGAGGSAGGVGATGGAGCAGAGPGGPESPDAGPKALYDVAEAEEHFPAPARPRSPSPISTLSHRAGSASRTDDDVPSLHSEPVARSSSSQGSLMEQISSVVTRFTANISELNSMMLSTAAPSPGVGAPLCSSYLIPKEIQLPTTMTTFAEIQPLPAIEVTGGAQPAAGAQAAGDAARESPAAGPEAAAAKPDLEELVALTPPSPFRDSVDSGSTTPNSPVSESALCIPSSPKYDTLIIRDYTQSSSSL

As to `Cc1cccc(NC(=O)c2cc(Oc3cnn(C)c3)cc(C)n2)n1` [22iC], the fraction unbound at 6 h, 1 µM in series [1] stood at 0.013. In series [2], the fraction unbound at 6 h, 5 µM was 0.041. In addition, the fraction unbound at 6 h, 5 µM in series [3] was determined as 0.059. Besides, in series [4], the CLint scaled at 40 min, 1 µM amounted to 77 mL/min/kg and the “CLhep, human” value was 17 mL/min/kg. Also, in series [5], the concentration ratio (Kp) at 0.25 h is 1.04 and the Kp uu at 0.25 h was 0.23. Also, in series [6], the CLint scaled at 40 min, 1 µM amounted to 234 mL/min/kg and the “CLhep, rat” value is recorded as 54 mL/min/kg. On human mGlu5, the “% GluMin” value was found to be 1%, the pIC50 came out at 7.38 and the IC50 was found to be 41 nM.

For the molecule `Cc1cccc(NC(=O)c2cc(Oc3ccnn3C)cc(C)n2)n1` [22hC], the fraction unbound at 6 h, 1 µM in series [1] amounted to 0.021. Moreover, in series [2], the fraction unbound at 6 h, 5 µM turned out to be 0.034. In series [3] (samples had low analyte peaks), the “stability in rat plasma” value is recorded as “potentially be unstable in rat plasma”. In series [4], the CLint scaled at 40 min, 1 µM turned out to be 241 mL/min/kg and the “CLhep, human” value is on record as 19 mL/min/kg. Besides, the concentration ratio (Kp) at 0.25 h in series [5] came out at 2.42. In series [6], the CLint scaled at 40 min, 1 µM is 320 mL/min/kg and the “CLhep, rat” value is reported as 57 mL/min/kg. Moreover, on human mGlu5, the “% GluMin” value stood at 2%, the negative logarithm of the IC50 (pIC50) turned out to be 7.04 and the 50% inhibitory concentration (IC50) stood at 91 nM.

`Cc1cc(Oc2cnn(C)c2)cc(C(=O)Nc2nc(C)cs2)n1` [22iB]: the fraction unbound at 6 h, 1 µM in series [1] amounted to 0.014. Further, in series [2], the fraction unbound at 6 h, 5 µM came out at 0.063. Besides, in series [3], the fraction unbound at 6 h, 5 µM amounted to 0.089. In series [4], the CLint scaled at 40 min, 1 µM worked out at 46 mL/min/kg and the “CLhep, human” value was 14 mL/min/kg. In series [5], the partition ratio (Kp) at 0.25 h worked out at 1.37 and the Kp uu at 0.25 h is 0.22. In series [6], the CLint scaled at 40 min, 1 µM was 44 mL/min/kg and the “CLhep, rat” value is reported as 27 mL/min/kg. In addition, the “fold increase in hmGlu5 potency” value at human mGlu5 (22fC vs 22bC, 22gA vs 22iA, 22iA vs 22hA, 22iB vs 22hB) is on record as 3.4 fold. For the same molecule, at human mGlu5, the “% GluMin” value came to 2%, the pIC50 was determined as 7.56 and the IC50 was found to be 28 nM.
